Here are results for 16 compounds from PubChem BioAssay (NCI).

Common to all, as to assay: inhibition of tumour cell growth, NCI panel, 48 h
In experiment [1] the test system is SK-MEL-28 melanoma.
Experiment [2] has as its system TK-10 renal.
Experiment [3] has as its system OVCAR-3 ovarian.
Experiment [4] has as its system UACC-62 melanoma.
The subject of experiment [5] is HCT-116 colon.
The subject of experiment [6] is A498 renal.
The test system of experiment [7] is M14 melanoma.
Experiment [8] concerns SF-268 CNS.

Structures are written as SMILES.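 A five-concentration, 48-hour dose response in 96-well plates underlies each endpoint, interpolated linearly between surrounding concentrations. TGI is the concentration that stops growth completely.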

In the case of `O=C(c1cccs1)N1CCc2ccccc2C1`, the TGI in experiment [1], in experiment [2], in experiment [3], in experiment [4], in experiment [5] and in experiment [6] was greater than 100 µM throughout. For the same compound, the TGI in experiment [7] and in experiment [8] was greater than 100 µM in each case.
Turning to `CN(C(=O)Cc1cccc(N=C=S)c1)[C@H]1CCCC[C@@H]1N1CCCC1`, the TGI in experiment [1] amounted to 32.8 µM; in experiment [2], 24.3 µM; in experiment [3], 28 µM; in experiment [4], 29.4 µM; in experiment [5], 26 µM; in experiment [6], 32.8 µM. Moreover, the TGI was determined as 41.1 µM in experiment [7] and 36.4 µM in experiment [8].
Consider `O=c1c2ccccc2nc(Cc2nc(-c3ccc(Cl)cc3)cs2)n1-c1ccc(Cl)cc1`, for which the TGI in experiment [1], in experiment [2], in experiment [3], in experiment [4], in experiment [5] and in experiment [6] was greater than 100 µM throughout. The TGI in experiment [7] and in experiment [8] was greater than 100 µM each time.
`CC1S/C(=N\N=C2/C(=O)Nc3ccc(Br)cc32)N(C2CCCCC2)C1=O` (stereo not drawn): the TGI was found to be 23.8 µM in experiment [1]; 6.58 µM in experiment [2]; 10 µM in experiment [3]; 6.75 µM in experiment [4]; 6.61 µM in experiment [5]; 12.5 µM in experiment [6]. Moreover, the TGI in experiment [7] is 22.7 µM; in experiment [8] it was 22.3 µM.
Consider `CCOC1=NC(O)c2cccn2-c2sccc21` (stereo not drawn), for which the TGI in experiment [1], in experiment [2], in experiment [3], in experiment [4], in experiment [5] and in experiment [6] was greater than 100 µM in each case. Further, the TGI in experiment [7] and in experiment [8] was greater than 100 µM each time.
Turning to `CC1(C)OC(=O)N(c2ccccc2)C12C=Cc1cc([N+](=O)[O-])ccc1O2` (stereo not drawn), the TGI in experiment [1], in experiment [2], in experiment [3], in experiment [4], in experiment [5] and in experiment [6] was greater than 100 µM each time. Besides, the TGI in experiment [7] and in experiment [8] was greater than 100 µM in each case.
Regarding `COC(=O)c1cc2c(cc1Cl)Sc1nnc(Nc3ccc(C)cc3)n1S2(=O)=O`, the TGI in experiment [1] was found to be 21.8 µM; in experiment [2], 27.7 µM; in experiment [3], 5.77 µM; in experiment [4], 26 µM; in experiment [5], 24.5 µM; in experiment [6], 28.9 µM. Further, the TGI in experiment [7] is 27.6 µM; in experiment [8], 10.9 µM.
`CCN(CC)CCSc1c2cc(OC)ccc2nc2ccc(OC)cc12`: the TGI came to 32.7 µM in experiment [1]; 22.1 µM in experiment [2]; 8.07 µM in experiment [3]; 33.5 µM in experiment [4]; 3.42 µM in experiment [5]; 51.5 µM in experiment [6]. The TGI in experiment [7] is greater than 32.3 µM; in experiment [8], 12.7 µM.
With `COC(=O)Nc1nc2ccc(S(=O)(=O)SC)cc2[nH]1`, the TGI was 25.3 µM in experiment [1]; 22.1 µM in experiment [2]; greater than 100 µM in experiment [3]; 22.5 µM in experiment [4]; 24.5 µM in experiment [5]; 99.7 µM in experiment [6]. For the same compound, the TGI in experiment [7] was 18.4 µM; in experiment [8] it was greater than 100 µM.
With `Clc1ccc(-c2cc3nc4ccccc4nc3o2)cc1`, the TGI in experiment [1], in experiment [2], in experiment [3], in experiment [4], in experiment [5] and in experiment [6] was greater than 100 µM in each case. The TGI in experiment [7] and in experiment [8] was greater than 100 µM each time.
For `C=CCCC1(CC(Sc2ccccc2)P(=O)(c2ccccc2)c2ccccc2)OCCO1` (stereo not drawn), the TGI in experiment [1], in experiment [2], in experiment [3], in experiment [4], in experiment [5] and in experiment [6] was greater than 10 µM throughout. Also, the TGI in experiment [7] and in experiment [8] was greater than 10 µM each time.
Take `CC(C)=CCC(O)[C@](C)(O)[C@H]1[C@H](O)C[C@@]2(C)[C@@H]3CCc4cc(O)c(OC5OC(CO)C(O)C(O)C5O)cc4C3(C)C(=O)C[C@]12C` (stereo partly drawn): the TGI in experiment [1], in experiment [2], in experiment [3], in experiment [4], in experiment [5] and in experiment [6] was greater than 100 µM throughout. The TGI in experiment [7] and in experiment [8] was greater than 100 µM throughout.
In the case of `O=C1NC2O[C@H](CNC(=O)c3cc(Br)c[nH]3)CC2(O)N1` (mixture of isomers), the TGI in experiment [1], in experiment [2], in experiment [3], in experiment [4], in experiment [5] and in experiment [6] was greater than 100 µM throughout. Moreover, the TGI in experiment [7] and in experiment [8] was greater than 100 µM throughout.
Consider `CCOC(=O)c1c(N2CCOCC2)[nH]c(=O)c(C(c2c(Cl)cccc2Cl)c2c(O)c(C(=O)OCC)c(N3CCOCC3)[nH]c2=O)c1O`, for which the TGI in experiment [1] worked out at 4.19 µM; in experiment [2], 14.3 µM; in experiment [3], 12.1 µM; in experiment [4], 20 µM; in experiment [5] it was 8.83 µM; in experiment [6], 20.9 µM. Moreover, the figures for the TGI in experiment [7] and in experiment [8] were 5.15 µM and 22.2 µM, respectively.
As to `C[N+]1(C)CCc2cc(O)c(O)cc2C1Cc1ccc(O)c(O)c1` (stereo not drawn), the TGI was greater than 100 µM in experiment [1]; greater than 100 µM in experiment [2]; greater than 100 µM in experiment [3]; greater than 100 µM in experiment [4]; 47.8 µM in experiment [5]; greater than 100 µM in experiment [6]. Moreover, the TGI in experiment [7] and in experiment [8] was greater than 100 µM each time.
As for `Cc1ccc2c(c1)CC1(Cc3ccccc3C1=O)C2=O` (stereo not drawn), the TGI in experiment [1], in experiment [2], in experiment [3], in experiment [4], in experiment [5] and in experiment [6] was greater than 100 µM throughout. The TGI in experiment [7] and in experiment [8] was greater than 100 µM in each case.
